Measured values as given in patent US8273773B2 (priority 2008, dated 2012).

Target: T1, HCV polymerase (NS5B570n-Con1) (Hepatitis C virus genotype 1b, UniProt Q9WMX2)
T1 construct: contains a 21 amino acid deletion at the C-terminus relative to the full-length HCV polymerase; 6-histidine (N); made in house; host or cells: E. coli strain BL21(DE) pLysS (pET17b)
Test: biochemical
Design: species or system HCV Con1 strain

[1] = IC50 HCV NS5B RNA Polymerase Assay (values with asterisk), values with asterisk: cIRES RNA template, 3 nM NS5B570n-Con1
[2] = IC50 HCV NS5B RNA Polymerase Assay, values without asterisk, 20 nM NS5B570n-Con1 enzyme, 20 nM cIRES RNA template
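Also: recombinant His-tagged enzyme from E. coli, radiolabeled nucleotide incorporation into acid-insoluble RNA read by scintillation after filtration, no-enzyme background subtracted, activity relative to positive control.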

Row | Compound | IC50 [1] [nM] | IC50 [2] [nM]
1 | COc1c(/C=C/c2ccc(NS(C)(=O)=O)cc2)cc(-c2ccc(C(C)O)[nH]c2=O)cc1C(C)(C)C (stereo not shown) [I-223, N-[4-((E)-2-{3-tert-Butyl-5-[6-(1-hydroxy-ethyl)-2-oxo-1,2-dihydro-pyridin-3-yl]-2-methoxy-phenyl}-vinyl)-phenyl]-methanesulfonamide] | 1 | 
2 | COc1c(/C=C/c2ccc(NS(C)(=O)=O)cc2)cc(-c2ccc(CC#N)[nH]c2=O)cc1C(C)(C)C [I-224, N-(4-{(E)-2-[3-tert-Butyl-5-(6-cyanomethyl-2-oxo-1,2-dihydro-pyridin-3-yl)-2-methoxy-phenyl]-vinyl}-phenyl)-methanesulfonamide] | 4 | 
3 | COc1c(/C=C/c2ccc(NS(C)(=O)=O)cc2)cc(-c2ccc(COCCO)[nH]c2=O)cc1C(C)(C)C [I-225, N-[4-((E)-2-{3-tert-Butyl-5-[6-(2-hydroxy-ethoxymethyl)-2-oxo-1,2-dihydro-pyridin-3-yl]-2-methoxy-phenyl}-vinyl)-phenyl]-methanesulfonamide] | 6 | 
4 | COCCc1cc(NS(C)(=O)=O)ccc1/C=C/c1cc(-c2cc(F)c[nH]c2=O)cc(C(C)(C)C)c1OC [I-227, N-[4-{(E)-2-[3-tert-Butyl-5-(5-fluoro-2-oxo-1,2-dihydro-pyridin-3-yl)-2-methoxy-phenyl]-vinyl}-3-(2-methoxy-ethyl)-phenyl]-methanesulfonamide] | 1 | 
5 | CCS(=O)(=O)Nc1ccc(/C=C/c2cc(-c3cc(F)c[nH]c3=O)cc(C(C)(C)C)c2OC)cc1 [I-228, Ethanesulfonic acid (4-{(E)-2-[3-tert-butyl-5-(5-fluoro-2-oxo-1,2-dihydro-pyridin-3-yl)-2-methoxy-phenyl]-vinyl}-phenyl)-amide] | 5 | 
6 | COc1c(/C=C/c2ccc(NS(=O)(=O)CC(F)(F)F)cn2)cc(-c2cc(F)c[nH]c2=O)cc1C(C)(C)C [I-229, 2,2,2-Trifluoro-ethanesulfonic acid (6-{(E)-2-[3-tert-butyl-5-(5-fluoro-2-oxo-1,2-dihydro-pyridin-3-yl)-2-methoxy-phenyl]-vinyl}-pyridin-3-yl)-amide] | 2 | 
7 | COc1c(/C=C/c2ccc(NS(=O)(=O)CCCN3CCCC3)cc2)cc(-c2cc(F)c[nH]c2=O)cc1C(C)(C)C [I-230, 3-Pyrrolidin-1-yl-propane-1-sulfonic acid (4-{(E)-2-[3-tert-butyl-5-(5-fluoro-2-oxo-1,2-dihydro-pyridin-3-yl)-2-methoxy-phenyl]-vinyl}-phenyl)-amide] | 6 | 
8 | COc1c(/C=C/c2ccc(NS(=O)(=O)CCCN3CCOCC3)cc2)cc(-c2cc(F)c[nH]c2=O)cc1C(C)(C)C [I-231, 3-Morpholin-4-yl-propane-1-sulfonic acid (4-{(E)-2-[3-tert-butyl-5-(5-fluoro-2-oxo-1,2-dihydro-pyridin-3-yl)-2-methoxy-phenyl]-vinyl}-phenyl)-amide] | 4 | 
9 | COc1c(/C=C/c2ccc(NS(=O)(=O)CCN3CCCC3)cc2)cc(-c2cc(F)c[nH]c2=O)cc1C(C)(C)C [I-232, 2-Pyrrolidin-1-yl-ethanesulfonic acid (4-{(E)-2-[3-tert-butyl-5-(5-fluoro-2-oxo-1,2-dihydro-pyridin-3-yl)-2-methoxy-phenyl]-vinyl}-phenyl)-amide] | 1 | 
10 | COc1c(/C=C/c2ccc(NS(=O)(=O)CCN3CCOCC3)cc2)cc(-c2cc(F)c[nH]c2=O)cc1C(C)(C)C [I-233] | 1 | 
11 | COc1c(/C=C/c2ccc(NS(=O)(=O)CCCN3CCCC3)cc2)cc(-c2ccc[nH]c2=O)cc1C(C)(C)C [I-234, 3-Pyrrolidin-1-yl-propane-1-sulfonic acid (4-{(E)-2-[3-tert-butyl-2-methoxy-5-(2-oxo-1,2-dihydro-pyridin-3-yl)-phenyl]-vinyl}-phenyl)-amide] | 4 | 
12 | COc1c(/C=C/c2ccc(NS(=O)(=O)CCCN3CCCC3)cc2)cc(-c2ccc(C)[nH]c2=O)cc1C(C)(C)C [I-235, 3-Pyrrolidin-1-yl-propane-1-sulfonic acid (4-{(E)-2-[3-tert-butyl-2-methoxy-5-(6-methyl-2-oxo-1,2-dihydro-pyridin-3-yl)-phenyl]-vinyl}-phenyl)-amide] | 12 | 
13 | COc1c(/C=C/c2ccc(NS(C)(=O)=O)cc2F)cc(-c2cc(F)c[nH]c2=O)cc1C(C)(C)C [I-236, N-(4-{(E)-2-[3-tert-Butyl-5-(5-fluoro-2-oxo-1,2-dihydro-pyridin-3-yl)-2-methoxy-phenyl]-vinyl}-3-fluoro-phenyl)-methanesulfonamide] | 1 | 
14 | COc1c(/C=C/c2ccccc2F)cc(-c2ccc[nH]c2=O)cc1C(C)(C)C [I-237, 3-{3-tert-Butyl-5-[(E)-2-(2-fluoro-phenyl)-vinyl]-4-methoxy-phenyl}-1H-pyridin-2-one] | 13 | 
15 | COc1c(/C=C/c2ccccc2C#N)cc(-c2ccc[nH]c2=O)cc1C(C)(C)C [I-238, 2-{(E)-2-[3-tert-Butyl-2-methoxy-5-(2-oxo-1,2-dihydro-pyridin-3-yl)-phenyl]-vinyl}-benzonitrile] | 2 | 
16 | COc1c(/C=C/c2ccccc2C(F)(F)F)cc(-c2ccc[nH]c2=O)cc1C(C)(C)C [I-239, 3-{3-tert-Butyl-4-methoxy-5-[(E)-2-(2-trifluoromethyl-phenyl)-vinyl]-phenyl}-1H-pyridin-2-one] | 8 | 
17 | COc1c(/C=C/c2ccncc2)cc(-c2ccc[nH]c2=O)cc1C(C)(C)C [I-240, 3-[3-tert-Butyl-4-methoxy-5-((E)-2-pyridin-4-yl-vinyl)-phenyl]-1H-pyridin-2-one] | 5 | 

Row | Compound | IC50 [1] [nM] | IC50 [2] [nM]
18 | COc1c(/C=C/c2ccccn2)cc(-c2ccc[nH]c2=O)cc1C(C)(C)C [I-241, 3-[3-tert-Butyl-4-methoxy-5-((E)-2-pyridin-2-yl-vinyl)-phenyl]-1H-pyridin-2-one] | 3 | 
19 | COC(=O)c1ccccc1/C=C/c1cc(-c2ccc[nH]c2=O)cc(C(C)(C)C)c1OC [I-242, 2-{(E)-2-[3-tert-Butyl-2-methoxy-5-(2-oxo-1,2-dihydro-pyridin-3-yl)-phenyl]-vinyl}-benzoic acid methyl ester] | 2 | 
20 | COc1c(/C=C/c2ccccc2S(C)(=O)=O)cc(-c2ccc[nH]c2=O)cc1C(C)(C)C [I-244, 3-{3-tert-Butyl-5-[(E)-2-(2-methanesulfonyl-phenyl)-vinyl]-4-methoxy-phenyl}-1H-pyridin-2-one] | 1 | 
21 | COc1c(/C=C/c2ccncc2C#N)cc(-c2ccc[nH]c2=O)cc1C(C)(C)C [I-245, 4-{(L)-2-[3-tert-Butyl-2-methoxy-5-(2-oxo-1,2-dihydro-pyridin-3-yl)-phenyl]-vinyl}-nicotinonitrile] | 1 | 
22 | COc1c(/C=C/c2ccccc2C(=O)O)cc(-c2ccc[nH]c2=O)cc1C(C)(C)C [I-246, 2-{(E)-2-[3-tert-Butyl-2-methoxy-5-(2-oxo-1,2-dihydro-pyridin-3-yl)-phenyl]-vinyl}-benzoic acid] | 1 | 
23 | COc1c(NC(=O)c2ccc(N)nc2)cc(-c2ccc[nH]c2=O)cc1C(C)(C)C [I-247, 6-Amino-N-[3-tert-butyl-2-methoxy-5-(2-oxo-1,2-dihydro-pyridin-3-yl)-phenyl]-nicotinamide] |  | 22
24 | COc1c(NC(=O)c2ccc(NCC(F)(F)F)nn2)cc(-c2ccc[nH]c2=O)cc1C(C)(C)C [I-248, 6-(2,2,2-Trifluoro-ethylamino)-pyridazine-3-carboxylic acid [3-tert-butyl-2-methoxy-5-(2-oxo-1,2-dihydro-pyridin-3-yl)-phenyl]-amide] |  | 19
25 | CCOc1c(/C=C/c2ccc(NS(C)(=O)=O)cc2)cc(-c2ccc[nH]c2=O)cc1C(C)(C)C [I-249] | 11 | 
26 | COCCOc1c(/C=C/c2ccc(NS(C)(=O)=O)cc2)cc(-c2ccc[nH]c2=O)cc1C(C)(C)C [I-250] | 23 | 
27 | COc1c(NC(=O)c2ccc(NCC(F)(F)F)c(F)c2)cc(-c2ccc[nH]c2=O)cc1C(C)(C)C [I-251, N-[3-tert-Butyl-2-methoxy-5-(2-oxo-1,2-dihydro-pyridin-3-yl)-phenyl]-3-fluoro-4-(2,2,2-trifluoro-ethylamino)-benzamide] | 2 | 
28 | COc1c(NC(=O)c2ccc(O)cc2F)cc(-c2ccc[nH]c2=O)cc1C(C)(C)C [I-252, N-[3-tert-Butyl-2-methoxy-5-(2-oxo-1,2-dihydro-pyridin-3-yl)-phenyl]-2-fluoro-4-hydroxy-benzamide] |  | 38
29 | COc1c(NC(=O)c2ccc(NCC(F)(F)F)cc2)cc(-c2ccc[nH]c2=O)cc1C(C)(C)C [I-253, N-[3-tert-Butyl-2-methoxy-5-(2-oxo-1,2-dihydro-pyridin-3-yl)-phenyl]-4-(2,2,2-trifluoro-ethylamino)-benzamide] |  | 2
30 | COCCNc1ccc(C(=O)Nc2cc(-c3ccc[nH]c3=O)cc(C(C)(C)C)c2OC)cn1 [I-254, N-[3-tert-Butyl-2-methoxy-5-(2-oxo-1,2-dihydro-pyridin-3-yl)-phenyl]-6-(2-methoxy-ethylamino)-nicotinamide] |  | 141
31 | COc1c(NC(=O)c2ccc(NC3CC3)nc2)cc(-c2ccc[nH]c2=O)cc1C(C)(C)C [I-255, N-[3-tert-Butyl-2-methoxy-5-(2-oxo-1,2-dihydro-pyridin-3-yl)-phenyl]-6-cyclopropylamino-nicotinamide] |  | 70
32 | COc1c(NC(=O)c2ccc(NC3CC3)cc2)cc(-c2ccc[nH]c2=O)cc1C(C)(C)C [I-256, N-[3-tert-Butyl-2-methoxy-5-(2-oxo-1,2-dihydro-pyridin-3-yl)-phenyl]4-cyclopropylamino-benzamide] |  | 19
33 | COCCNc1ccc(C(=O)Nc2cc(-c3ccc[nH]c3=O)cc(C(C)(C)C)c2OC)cc1 [I-257, N-[3-tert-Butyl-2-methoxy-5-(2-oxo-1,2-dihydro-pyridin-3-yl)-phenyl]-4-(2-methoxy-ethylamino)-benzamide] |  | 184
34 | COc1c(/C=C/c2ccc(NS(C)(=O)=O)cn2)cc(-c2ccc[nH]c2=O)cc1C1(C(F)F)CC1 [I-258, N-(6-{(E)-2-[3-(1-Difluoromethyl-cyclopropyl)-2-methoxy-5-(2-oxo-1,2-dihydro-pyridin-3-yl)-phenyl]-vinyl}-pyridin-3-yl)-methanesulfonamide] | 1 | 
